Laboratory results published in PMC6008465 (British Journal of Cancer, 2018).

System: patients with advanced solid tumours
Assay: Phase 1 Part A (dose escalation): safety, DLT, MTD
Assay type: in vivo, human
Conditions: Part A
Experimental: The primary objectives of this phase 1 study were to evaluate the safety, tolerability, and MTD of once-weekly (Schedule I) and twice-weekly (Schedule II) dosing. Secondary objectives included evaluation of the PK profile of E6201. […] Toxicity was managed by dose interruption, reduction, and/or discontinuation. Only Cycle 1 adverse events (AEs) were evaluable as DLTs. Based on AEs reported at 480 mg/m^2 and 400 mg/m^2, the protocol was amended to include up to 6 additional toxicity-evaluable patients at 320 mg/m^2, to confirm this as the MTD. All ongoing patients could continue at 320 mg/m^2, regardless of initial starting dose.
Safety was assessed by monitoring AEs, serious AEs (SAEs), laboratory parameters, vital signs, 12-lead electrocardiograms (ECGs), Eastern Cooperative Oncology Group performance status, and symptom-directed physical and neurologic examination findings. AEs were graded by investigators based on the National Cancer Institute Common Terminology Criteria for Adverse Events, version 3.[16]

In the case of `CCNc1cc(O)c2c(c1)/C=C/C[C@H](O)[C@H](O)C(=O)/C=C\[C@@H](C)[C@H](C)OC2=O` [E6201, (3S,4R,5Z,8S,9S,11E)-14-(ethylamino)-8,9,16-trihydroxy-3,4-dimethyl-3,4,9,19-tetrahydro-1H-2-benzoxacyclotetradecine-1,7 (8H)-dione], the “Fatigue TEAE incidence, All grades” value (320 mg/m^2 (n=7)) is reported as 3 (42.9) n (%), the “Fatigue TEAE incidence, G≥3” value (320 mg/m^2 (n=7)) is reported as 1 (14.3) n (%) and the “Hypokalemia TEAE incidence, All grades” value (320 mg/m^2 (n=7)) is reported as 2 (28.6) n (%). The “Hypokalemia TEAE incidence, G≥3” value (320 mg/m^2 (n=7)) was 0 n (%), the “Nausea TEAE incidence, All grades” value (320 mg/m^2 (n=7)) was 5 (71.4) n (%) and the “Nausea TEAE incidence, G≥3” value (320 mg/m^2 (n=7)) was 1 (14.3) n (%). The “Patients with a DLT (QTcF increase from baseline > 60 ms) and grade 2 CNS toxicities” value (320 mg/m^2 (n=7)) was “One”, the “Peripheral edema TEAE incidence, All grades” value (320 mg/m^2 (n=7)) was 1 (14.3) n (%) and the “Peripheral edema TEAE incidence, G≥3” value (320 mg/m^2 (n=7)) was 1 (14.3) n (%). The “Vomiting TEAE incidence, All grades” value (320 mg/m^2 (n=7)) was 4 (57.1) n (%), the “Vomiting TEAE incidence, G≥3” value (320 mg/m^2 (n=7)) was 0 n (%) and the “Patients with grade 3 bradycardia (unrelated to E6201)” value (320 mg/m^2 group) was “one”. For the same molecule, the “Deaths (abnormal hepatic function, possibly related to E6201)” value (320 mg/m^2 group, post-Cycle 1) was 1 patient, the “Patients with CNS toxicity (grade 1 dizziness) treated conservatively as a DLT” value (400 mg/m^2) was 1 patient and the “Abdominal pain TEAE incidence, All grades” value (400 mg/m^2 (n=1)) was 0 n (%). For the same molecule, the “Abdominal pain TEAE incidence, G≥3” value (400 mg/m^2 (n=1)) was 0 n (%), the “Constipation TEAE incidence, All grades” value (400 mg/m^2 (n=1)) was 0 n (%) and the “Constipation TEAE incidence, G≥3” value (400 mg/m^2 (n=1)) was 0 n (%). For the same molecule, the “Decreased appetite TEAE incidence, All grades” value (400 mg/m^2 (n=1)) was 0 n (%), the “Decreased appetite TEAE incidence, G≥3” value (400 mg/m^2 (n=1)) was 0 n (%) and the “Fatigue TEAE incidence, All grades” value (400 mg/m^2 (n=1)) was 0 n (%). For the same molecule, the “Fatigue TEAE incidence, G≥3” value (400 mg/m^2 (n=1)) was 0 n (%), the “Hypokalemia TEAE incidence, All grades” value (400 mg/m^2 (n=1)) was 1 (100) n (%) and the “Hypokalemia TEAE incidence, G≥3” value (400 mg/m^2 (n=1)) was 1 (100) n (%). The “Nausea TEAE incidence, All grades” value (400 mg/m^2 (n=1)) was 0 n (%), the “Nausea TEAE incidence, G≥3” value (400 mg/m^2 (n=1)) was 0 n (%) and the “Peripheral edema TEAE incidence, All grades” value (400 mg/m^2 (n=1)) was 0 n (%). For the same molecule, the “Peripheral edema TEAE incidence, G≥3” value (400 mg/m^2 (n=1)) was 0 n (%), the “Vomiting TEAE incidence, All grades” value (400 mg/m^2 (n=1)) was 0 n (%) and the “Vomiting TEAE incidence, G≥3” value (400 mg/m^2 (n=1)) was 0 n (%). For the same molecule, the “Abdominal pain TEAE incidence, All grades” value (480 mg/m^2 (n=4)) was 1 (25.0) n (%), the “Abdominal pain TEAE incidence, G≥3” value (480 mg/m^2 (n=4)) was 0 n (%) and the “Constipation TEAE incidence, All grades” value (480 mg/m^2 (n=4)) was 2 (50.0) n (%). The “Constipation TEAE incidence, G≥3” value (480 mg/m^2 (n=4)) was 0 n (%), the “Decreased appetite TEAE incidence, All grades” value (480 mg/m^2 (n=4)) was 1 (25.0) n (%) and the “Decreased appetite TEAE incidence, G≥3” value (480 mg/m^2 (n=4)) was 0 n (%). The “Fatigue TEAE incidence, All grades” value (480 mg/m^2 (n=4)) was 2 (50.0) n (%), the “Fatigue TEAE incidence, G≥3” value (480 mg/m^2 (n=4)) was 0 n (%) and the “Hypokalemia TEAE incidence, All grades” value (480 mg/m^2 (n=4)) was 2 (50.0) n (%). The “Hypokalemia TEAE incidence, G≥3” value (480 mg/m^2 (n=4)) was 0 n (%), the “Nausea TEAE incidence, All grades” value (480 mg/m^2 (n=4)) was 1 (25.0) n (%) and the “Nausea TEAE incidence, G≥3” value (480 mg/m^2 (n=4)) was 0 n (%). The “Peripheral edema TEAE incidence, All grades” value (480 mg/m^2 (n=4)) was 0 n (%), the “Peripheral edema TEAE incidence, G≥3” value (480 mg/m^2 (n=4)) was 0 n (%) and the “Vomiting TEAE incidence, All grades” value (480 mg/m^2 (n=4)) was 1 (25.0) n (%). For the same molecule, the “Vomiting TEAE incidence, G≥3” value (480 mg/m^2 (n=4)) was 0 n (%), the “QTcF prolongation to >500 ms, patients” value (480 mg/m^2, Cycle 2) was “one” and the “Patients with DLTs” value (480 mg/m^2, QTcF > 500 ms, grade 4 confusion, QTcF increase > 60 ms) was 3 patients. The “Grade 3/4 ECG QT prolonged, patients” value (2 patients) was 8.0%, the “Grade 3/4 abdominal pain, patients” value (2 patients) was 8.0% and the “Grade 3/4 hyperbilirubinemia, patients” value (2 patients) was 8.0%. The “Grade 3/4 syncope, patients” value (2 patients) was 8.0%, the “Treatment-emergent SAEs other than death, patients” value (8 patients) was 32.0% and the “Grade 3/4 TEAEs, patients” value (11 patients) was 44.0%. For the same molecule, the “QT prolongation reported as an AE (Grade 2/3, DLT, probably related), patients” value (30-min infusion, three patients) was 12.0%, the “Patients with ≥1 TEAE assessed as treatment-related” value (Eleven patients) was 44.0% and the “Abdominal pain TEAE incidence, All grades” value (Total (N=25)) was 6 (24.0) n (%). The “Abdominal pain TEAE incidence, G≥3” value (Total (N=25)) was 2 (8.0) n (%), the “Constipation TEAE incidence, All grades” value (Total (N=25)) was 7 (28.0) n (%) and the “Constipation TEAE incidence, G≥3” value (Total (N=25)) was 0 n (%). The “Decreased appetite TEAE incidence, All grades” value (Total (N=25)) was 5 (20.0) n (%), the “Decreased appetite TEAE incidence, G≥3” value (Total (N=25)) was 1 (4.0) n (%) and the “Fatigue TEAE incidence, All grades” value (Total (N=25)) was 7 (28.0) n (%). For the same molecule, the “Fatigue TEAE incidence, G≥3” value (Total (N=25)) was 1 (4.0) n (%), the “Hypokalemia TEAE incidence, All grades” value (Total (N=25)) was 7 (28.0) n (%) and the “Hypokalemia TEAE incidence, G≥3” value (Total (N=25)) was 1 (4.0) n (%). The “Nausea TEAE incidence, All grades” value (Total (N=25)) was 9 (36.0) n (%), the “Nausea TEAE incidence, G≥3” value (Total (N=25)) was 1 (4.0) n (%) and the “Peripheral edema TEAE incidence, All grades” value (Total (N=25)) was 4 (16.0) n (%). The “Peripheral edema TEAE incidence, G≥3” value (Total (N=25)) was 1 (4.0) n (%), the “Vomiting TEAE incidence, All grades” value (Total (N=25)) was 7 (28.0) n (%) and the “Vomiting TEAE incidence, G≥3” value (Total (N=25)) was 0 n (%). The “QTcF increase of 30–60 ms from baseline, patients” value (five patients) was 20.0%, the “QTcF prolongation to 450–500 ms, patients” value (five patients across dose groups) was 20.0% and the “QTcF increase of >60 ms from baseline, patients” value (two patients) was 8.0%. The “Maximum-tolerated dose (MTD)” value (30-min IV infusion once-weekly for 3 weeks of a 28-day cycle) was 320 mg/m^2.
